Patent publication US6235509A (priority 1996, dated 2001)

Test system: chymotrypsin
Assay type: biochemical
Conditions: pH 8.0

SMILES: Oc1cccnc1 [3-hydroxypyridine]
- kinetics of the inhibition of chymotrypsin by AEBSF: not changed
